Experiments:
Assay type in all cases: in vivo
rice (Oryra sativa) = test: Test B flooded paddy test; conditions: Oryza sativa, 250 g ai/ha, Flood; 0 to 100 scale where 0 is no effect and 100 is complete control; read-out: Rice plant response rating
Method in brief: (§1)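 Compound goes directly into floodwater once pots are flooded 3 cm above soil, targeting plants at two leaves; the water depth is then held for the test duration. Plants sit 13–15 d in a greenhouse and are rated visually, 100 denoting complete control.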

[1] = tested on: ducksalad (Heteranthera limosa); test: Test B flooded paddy test; conditions: Heteranthera limosa, 250 g ai/ha, Flood; 0 to 100 scale where 0 is no effect and 100 is complete control; read-out: Ducksalad plant response rating
Method in brief: as §1

[2] = tested on: barnyardgrass (Echinochloa crus-galli); test: Test B flooded paddy test; conditions: Echinochloa crus-galli, 250 g ai/ha, Flood; 0 to 100 scale where 0 is no effect and 100 is complete control; read-out: Barnyardgrass plant response rating
Method in brief: as §1

[3] = tested on: sedge, umbrella (small-flower umbrella sedge, Cyperus difformis); test: Test B flooded paddy test; conditions: Cyperus difformis, 250 g ai/ha, Flood; 0 to 100 scale where 0 is no effect and 100 is complete control; read-out: Sedge, Umbrella plant response rating
Method in brief: as §1

[4] = tested on: ryegrass, Italian (Italian ryegrass, Lolium multiflorum); test: Test A preemergence; conditions: Lolium multiflorum, pre-emergence, 240 h, 0 to 100 scale where 0 is no effect and 100 is complete control, read-out: Ryegrass, Italian plant response rating; for pest or weed control at 31 g/ha: 31 g ai/ha, Preemergence; for pest or weed control at 125 g/ha: 125 g ai/ha, preemergence, visual injury rating, approximately 10 d
Method in brief: (§2)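 Visual injury, scored on a 0–100 scale relative to untreated controls, was recorded about 10 d after application. Treatments were a preemergence soil spray over planted seeds or a postemergence spray on plants at the one- to two-leaf stage, 2 to 10 cm tall, all in loam soil–sand blend in the greenhouse.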

[5] = tested on: ragweed (common ragweed, Ambrosia elatior); test: Test A preemergence; conditions: Ambrosia artemisiifolia, pre-emergence, 240 h, 0 to 100 scale where 0 is no effect and 100 is complete control, read-out: Ragweed plant response rating; for pest or weed control at 31 g/ha: 31 g ai/ha, Preemergence; for pest or weed control at 125 g/ha: 125 g ai/ha, preemergence, visual injury rating, approximately 10 d
Method in brief: as §2

[6] = tested on: giant foxtail (Setaria faberii); test: Test A preemergence; conditions: Setaria faberi, pre-emergence, 240 h, 0 to 100 scale where 0 is no effect and 100 is complete control, read-out: Foxtail, Giant plant response rating; for pest or weed control at 31 g/ha: 31 g ai/ha, Preemergence; for pest or weed control at 125 g/ha: 125 g ai/ha, preemergence, visual injury rating, approximately 10 d
Method in brief: as §2

[7] = tested on: pigweed (Amaranthus retroflexus); test: Test A preemergence; conditions: Amaranthus retroflexus, pre-emergence, 240 h, 0 to 100 scale where 0 is no effect and 100 is complete control, read-out: Pigweed plant response rating; for pest or weed control at 31 g/ha: 31 g ai/ha, Preemergence; for pest or weed control at 125 g/ha: 125 g ai/ha, preemergence, visual injury rating, approximately 10 d
Kochia (Kochia scoparia) [8] = test: Test A preemergence; conditions: Bassia scoparia, pre-emergence, 240 h, 0 to 100 scale where 0 is no effect and 100 is complete control, read-out: Kochia plant response rating; for pest or weed control at 31 g/ha: 31 g ai/ha, Preemergence; for pest or weed control at 125 g/ha: 125 g ai/ha, preemergence, visual injury rating, approximately 10 d
Method in brief: as §2

[9] = tested on: barnyardgrass (Echinochloa crus-galli); test: Test A preemergence; conditions: Echinochloa crus-galli, pre-emergence, 240 h, 0 to 100 scale where 0 is no effect and 100 is complete control, read-out: Barnyardgrass plant response rating; for pest or weed control at 31 g/ha: 31 g ai/ha, Preemergence; for pest or weed control at 125 g/ha: 125 g ai/ha, preemergence, visual injury rating, approximately 10 d
Method in brief: as §2

[10] = tested on: ryegrass, Italian (Italian ryegrass, Lolium multiflorum); test: Test A postemergence; conditions: Lolium multiflorum, post-emergence, 240 h, Postemergence, read-out: Ryegrass, Italian plant response rating (0 to 100 scale); for pest or weed control at 125 g/ha: 125 g ai/ha, visual rating about 10 d after treatment; for pest or weed control at 31 g/ha: 31 g ai/ha, 0 is no effect, 100 is complete control
Method in brief: as §2

[11] = tested on: ragweed (common ragweed, Ambrosia elatior); test: Test A postemergence; conditions: Ambrosia artemisiifolia, post-emergence, 240 h, Postemergence, read-out: Ragweed plant response rating (0 to 100 scale); for pest or weed control at 125 g/ha: 125 g ai/ha, visual rating about 10 d after treatment; for pest or weed control at 31 g/ha: 31 g ai/ha, 0 is no effect, 100 is complete control
Method in brief: as §2

[12] = tested on: Galium (catchweed bedstraw, Galium aparine); test: Test A postemergence; conditions: Galium, post-emergence, 240 h, Postemergence, read-out: Galium plant response rating (0 to 100 scale); for pest or weed control at 125 g/ha: 125 g ai/ha, visual rating about 10 d after treatment; for pest or weed control at 31 g/ha: 31 g ai/ha, 0 is no effect, 100 is complete control
Method in brief: as §2

[13] = tested on: giant foxtail (Setaria faberii); test: Test A postemergence; conditions: Setaria faberi, post-emergence, 240 h, Postemergence, read-out: Foxtail, Giant plant response rating (0 to 100 scale); for pest or weed control at 125 g/ha: 125 g ai/ha, visual rating about 10 d after treatment; for pest or weed control at 31 g/ha: 31 g ai/ha, 0 is no effect, 100 is complete control
Method in brief: as §2

[14] = tested on: pigweed (Amaranthus retroflexus); test: Test A postemergence; conditions: Amaranthus retroflexus, post-emergence, 240 h, Postemergence, read-out: Pigweed plant response rating (0 to 100 scale); for pest or weed control at 125 g/ha: 125 g ai/ha, visual rating about 10 d after treatment; for pest or weed control at 31 g/ha: 31 g ai/ha, 0 is no effect, 100 is complete control
Method in brief: as §2

corn (Zea mays) = test: Test A postemergence; conditions: Zea mays, post-emergence, 240 h, Postemergence, read-out: Corn plant response rating (0 to 100 scale); for plant injury at 125 g/ha: 125 g ai/ha, visual rating about 10 d after treatment; for plant injury at 31 g/ha: 31 g ai/ha, 0 is no effect, 100 is complete control
Method in brief: as §2

Kochia (Kochia scoparia) [15] = test: Test A postemergence; conditions: Bassia scoparia, post-emergence, 240 h, Postemergence, read-out: Kochia plant response rating (0 to 100 scale); for pest or weed control at 125 g/ha: 125 g ai/ha, visual rating about 10 d after treatment; for pest or weed control at 31 g/ha: 31 g ai/ha, 0 is no effect, 100 is complete control
Method in brief: as §2

[16] = tested on: barnyardgrass (Echinochloa crus-galli); test: Test A postemergence; conditions: Echinochloa crus-galli, post-emergence, 240 h, Postemergence; for pest or weed control at 125 g/ha: 125 g ai/ha, visual rating about 10 d after treatment, read-out: Barnyardgrass plant response rating (0 to 100 scale, 0 no effect, 100 complete control); for pest or weed control at 31 g/ha: 31 g ai/ha, 0 is no effect, 100 is complete control, read-out: Barnyardgrass plant response rating (0 to 100 scale)
Method in brief: as §2

[17] = tested on: blackgrass (Alopecurus myosuroides); test: Test A postemergence; conditions: Alopecurus myosuroides, post-emergence, 240 h, Postemergence, read-out: Blackgrass plant response rating (0 to 100 scale); for pest or weed control at 125 g/ha: 125 g ai/ha, visual rating about 10 d after treatment; for pest or weed control at 31 g/ha: 31 g ai/ha, 0 is no effect, 100 is complete control
Method in brief: as §2

[18] = tested on: wheat (Triticum aestivum); test: Test A postemergence; conditions: Triticum aestivum, post-emergence, 240 h, Postemergence, read-out: Wheat plant response rating (0 to 100 scale); for plant injury at 125 g/ha: 125 g ai/ha, visual rating about 10 d after treatment; for plant injury at 31 g/ha: 31 g ai/ha, 0 is no effect, 100 is complete control
Method in brief: as §2

SMILES	pest or weed control at 250 g/ha (rice (Oryra sativa)) [%]	pest or weed control at 250 g/ha [1] [%]	pest or weed control at 250 g/ha [2] [%]	pest or weed control at 250 g/ha [3] [%]	pest or weed control at 31 g/ha [4] [%]	pest or weed control at 125 g/ha [4] [%]	pest or weed control at 31 g/ha [5] [%]	pest or weed control at 125 g/ha [5] [%]	pest or weed control at 31 g/ha [6] [%]	pest or weed control at 125 g/ha [6] [%]	pest or weed control at 31 g/ha [7] [%]	pest or weed control at 125 g/ha [7] [%]	pest or weed control at 31 g/ha (Kochia (Kochia scoparia) [8]) [%]	pest or weed control at 125 g/ha (Kochia (Kochia scoparia) [8]) [%]	pest or weed control at 31 g/ha [9] [%]	pest or weed control at 125 g/ha [9] [%]	pest or weed control at 125 g/ha [10] [%]	pest or weed control at 31 g/ha [10] [%]	pest or weed control at 125 g/ha [11] [%]	pest or weed control at 31 g/ha [11] [%]	other results
CN1C[C@H](c2csc3c2CCOC3)[C@@H](C(=O)Nc2ccccc2F)C1=O [Compound 1267]	0	90	90	0	0	0	0	0	90	90	0	0	0	0	90	90	0	0	0	0	pest or weed control at 125 g/ha [12]: 0%; pest or weed control at 31 g/ha [12]: 0%; pest or weed control at 125 g/ha [13]: 90%; pest or weed control at 31 g/ha [13]: 60%; pest or weed control at 125 g/ha [14]: 0%; pest or weed control at 31 g/ha [14]: 0%; plant injury at 125 g/ha (corn (Zea mays)): 0%; plant injury at 31 g/ha (corn (Zea mays)): 0%; pest or weed control at 125 g/ha (Kochia (Kochia scoparia) [15]): 0%; pest or weed control at 31 g/ha (Kochia (Kochia scoparia) [15]): 0%; pest or weed control at 125 g/ha [16]: 90%; pest or weed control at 31 g/ha [16]: 60%; pest or weed control at 125 g/ha [17]: 0%; pest or weed control at 31 g/ha [17]: 0%; plant injury at 125 g/ha [18]: 0%; plant injury at 31 g/ha [18]: 0%
CN1C[C@H](c2cc(Cl)cc(Cl)c2)[C@@H](C(=O)Nc2cccc(F)c2F)C1=O [Compound 1270]	15	80	60	0	0	40	0	30	90	90	0	40	40	60	70	90	30	0	0	0	pest or weed control at 125 g/ha [12]: 70%; pest or weed control at 31 g/ha [12]: 60%; pest or weed control at 125 g/ha [13]: 80%; pest or weed control at 31 g/ha [13]: 60%; pest or weed control at 125 g/ha [14]: 60%; pest or weed control at 31 g/ha [14]: 40%; plant injury at 125 g/ha (corn (Zea mays)): 20%; plant injury at 31 g/ha (corn (Zea mays)): 0%; pest or weed control at 125 g/ha (Kochia (Kochia scoparia) [15]): 60%; pest or weed control at 31 g/ha (Kochia (Kochia scoparia) [15]): 0%; pest or weed control at 125 g/ha [16]: 90%; pest or weed control at 31 g/ha [16]: 90%; pest or weed control at 125 g/ha [17]: 40%; pest or weed control at 31 g/ha [17]: 0%; plant injury at 125 g/ha [18]: 40%; plant injury at 31 g/ha [18]: 0%

Reference: patent publication US12077503B2, “Substituted cyclic amides and their use as herbicides” (FMC CORPORATION, priority 2015, dated 2024)
